{
  "source": "patent US20150274719A1",
  "about": "“AMINO-SUBSTITUTED IMIDAZO[1,2-A]PYRIDINECARBOXAMIDES AND THEIR USE” (BAYER PHARMA AKTIENGESELLSCHAFT, priority 2012, published 2015)",
  "data": [
    {"target": "T1, recombinant guanylate cyclase reporter cell line (Rattus norvegicus, UniProt P19686+P20595)", "T1 construct": "expressed in transfected cells; host or cells: recombinant reporter cell line", "T1 sequence (P19686 1-690)": "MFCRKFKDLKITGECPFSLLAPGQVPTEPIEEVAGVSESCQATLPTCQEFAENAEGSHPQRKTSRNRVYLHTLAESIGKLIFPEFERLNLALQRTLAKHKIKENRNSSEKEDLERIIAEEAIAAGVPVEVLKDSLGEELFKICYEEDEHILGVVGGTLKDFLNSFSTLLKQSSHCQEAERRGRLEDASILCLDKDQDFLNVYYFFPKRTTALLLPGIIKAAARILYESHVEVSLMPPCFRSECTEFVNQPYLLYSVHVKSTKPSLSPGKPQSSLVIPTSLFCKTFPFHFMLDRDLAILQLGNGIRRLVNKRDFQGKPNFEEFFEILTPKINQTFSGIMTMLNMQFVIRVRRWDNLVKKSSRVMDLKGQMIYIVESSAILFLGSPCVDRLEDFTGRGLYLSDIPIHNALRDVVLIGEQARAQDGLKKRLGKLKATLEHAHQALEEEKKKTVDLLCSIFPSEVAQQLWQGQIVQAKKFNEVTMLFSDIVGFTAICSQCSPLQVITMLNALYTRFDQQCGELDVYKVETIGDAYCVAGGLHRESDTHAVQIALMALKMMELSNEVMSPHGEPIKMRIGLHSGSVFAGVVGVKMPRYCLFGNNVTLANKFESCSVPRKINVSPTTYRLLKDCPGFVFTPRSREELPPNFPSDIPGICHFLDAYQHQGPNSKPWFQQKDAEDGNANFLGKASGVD", "T1 sequence (P20595 1-619)": "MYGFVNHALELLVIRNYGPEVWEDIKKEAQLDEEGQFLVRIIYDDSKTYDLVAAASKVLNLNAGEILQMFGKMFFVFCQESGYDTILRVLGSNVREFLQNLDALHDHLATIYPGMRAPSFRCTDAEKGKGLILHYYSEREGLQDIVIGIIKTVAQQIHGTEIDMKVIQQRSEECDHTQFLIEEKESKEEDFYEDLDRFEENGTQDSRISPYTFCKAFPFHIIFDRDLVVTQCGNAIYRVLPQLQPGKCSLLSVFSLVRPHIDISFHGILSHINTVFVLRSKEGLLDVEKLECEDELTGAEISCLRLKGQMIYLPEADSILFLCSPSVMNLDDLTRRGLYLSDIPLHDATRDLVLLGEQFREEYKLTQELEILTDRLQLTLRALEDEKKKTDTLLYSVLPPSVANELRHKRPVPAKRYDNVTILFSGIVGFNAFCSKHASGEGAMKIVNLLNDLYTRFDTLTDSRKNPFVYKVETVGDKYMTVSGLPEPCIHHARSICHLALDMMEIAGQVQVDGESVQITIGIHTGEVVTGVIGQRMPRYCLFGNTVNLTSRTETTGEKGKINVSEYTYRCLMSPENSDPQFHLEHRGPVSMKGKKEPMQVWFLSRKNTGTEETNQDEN", "test": "Action on recombinant guanylate cyclase reporter cell line", "assay_type": "cell-based", "conditions": "in some cases mean values from individual determinations", "procedure,_shortened": "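Rat recombinant guanylate cyclase reporter cell line measures cellular activity. Value reported as MEC (minimal effective concentration), sometimes averaged over individual determinations.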", "units": {"MEC (minimal effective concentration)": "µM"}, "values": [
      {"molecule": "CCOC(=O)c1cccc(C(CN)NC(=O)c2c(C)nc3c(OCc4c(F)cccc4F)cc(C)cn23)n1", "note": "(centres unmarked) [Example 397]", "MEC (minimal effective concentration)": 1.00},
      {"molecule": "Cc1nc2c(OCc3c(F)cccc3F)cccn2c1C(=O)NC1CCNc2ccc(F)cc21", "note": "(single isomer, unassigned; ent-8) [Example 106, ent-8-[(2,6-difluorobenzyl)oxy]-N-(6-fluoro-1,2,3,4-tetrahydroquinolin-4-yl)-2-methylimidazo[1,2-a]pyridine-3-carboxamide]", "MEC (minimal effective concentration)": 0.03},
      {"molecule": "Cc1cc(OCc2c(F)cccc2F)c2nc(C)c(C(=O)NC3CCC(N)C3)n2c1", "note": "(mixture of isomers) [Example 308, N-(3-aminocyclopentyl)-8-[(2,6-difluorobenzyl)oxy]-2,6-dimethylimidazo[1,2-a]pyridine-3-carboxamide (stereoisomer mixture)]", "MEC (minimal effective concentration)": 0.20},
      {"molecule": "Cc1nc2c(OCc3c(F)cccc3F)cccn2c1C(=O)NC(CNCC(F)(F)F)c1ccc(F)c(F)c1", "note": "(single isomer, unassigned; ent-8) [Example 222, ent-8-[(2,6-Difluorobenzyl)oxy]-N-{1-(3,4-difluorophenyl)-2-[(2,2,2-trifluoroethyl)amino]ethyl}-2-methylimidazo[1,2-a]pyridine-3-carboxamide]", "MEC (minimal effective concentration)": 0.30},
      {"molecule": "Cc1nc2c(OCc3c(F)cccc3F)cccn2c1C(=O)NCC(C)(N)CCO", "note": "(single isomer, unassigned; enantiomer a) [Example 272, ent-N-(2-Amino-4-hydroxy-2-methylbutyl)-8-[(2,6-difluorobenzyl)oxy]-2-methylimidazo[1,2-a]-pyridine-3-carboxamide (Enantiomer A)]", "MEC (minimal effective concentration)": 5.5},
      {"molecule": "CCCC[C@H](CN1CCCC1)NC(=O)c1c(C)nc2c(OCc3c(F)cccc3F)cccn12", "note": "[Example 66, ent-8-[(2,6-difluorobenzyl)oxy]-2-methyl-N-[(2R)-1-(pyrrolidin-1-yl)hexan-2-yl]imidazo[1,2-a]-pyridine-3-carboxamide]", "MEC (minimal effective concentration)": 1.00},
      {"molecule": "COCC(N)CNC(=O)c1c(C)nc2c(OCc3c(F)cccc3F)cc(C)cn12", "note": "(single isomer, unassigned) [Example 243, ent-N-(2-Amino-3-methoxypropyl)-8-[(2,6-difluorobenzyl)oxy]-2,6-dimethylimidazo[1,2-a]-pyridine-3-carboxamide]", "MEC (minimal effective concentration)": 1.00},
      {"molecule": "Cc1cc(OCc2c(F)cccc2F)c2nc(C)c(C(=O)NCC3CSCCN3)n2c1", "note": "(racemic) [Example 366, rac-8-[(2,6-difluorobenzyl)oxy]-2,6-dimethyl-N-(thiomorpholin-3-ylmethyl)imidazo[1,2-a]pyridine-3-carboxamide]", "MEC (minimal effective concentration)": 0.10},
      {"molecule": "CCCC(C)(N)CNC(=O)c1c(C(F)(F)F)nc2c(OCc3c(F)cccc3F)cc(C)cn12", "note": "(stereo not drawn) [Example 305, ent-N-(2-amino-2-methylpentyl)-8-[(2,6-difluorobenzyl)oxy]-6-methyl-2-(trifluoromethyl)imidazo[1,2-a]pyridine-3-carboxamide]", "MEC (minimal effective concentration)": 0.10},
      {"molecule": "Cc1cc(OCc2c(F)cccc2F)c2nc(C)c(C(=O)NCC(C)(N)CC(C)C)n2c1", "note": "(single isomer, unassigned) [Example 219, ent-N-(2-Amino-2,4-dimethylpentyl)-8-[(2,6-difluorobenzyl)oxy]-2,6-dimethylimidazo[1,2-a]-pyridine-3-carboxamide]", "MEC (minimal effective concentration)": 0.30},
      {"molecule": "Cc1nc2c(OCc3c(F)cccc3F)cc(Cl)cn2c1C(=O)NC1CNCc2ccccc21", "note": "(single isomer, unassigned; ent-6) [Example 107, ent-6-chloro-8-[(2,6-difluorobenzyl)oxy]-2-methyl-N-(1,2,3,4-tetrahydroisoquinolin-4-yl)imidazo[1,2-a]pyridine-3-carboxamide]", "MEC (minimal effective concentration)": 0.30},
      {"molecule": "Cc1cc(OCc2c(F)cccc2F)c2nc(C)c(C(=O)NCCN3CCN(C(C)C)CC3)n2c1", "note": "[Example 139, 8-[(2,6-difluorobenzyl)oxy]-N-[2-(4-isopropylpiperazin-1-yl)ethyl]-2,6-dimethylimidazo[1,2-a]pyridine-3-carboxamide]", "MEC (minimal effective concentration)": 1.00},
      {"molecule": "Cc1cc(OCc2c(F)cccc2F)c2nc(C)c(C(=O)NC(CN)c3ccc4ccccc4c3)n2c1", "note": "(racemic) [Example 379, rac-N-[2-amino-1-(2-naphthyl)ethyl]-8-[(2,6-difluorobenzyl)oxy]-2,6-dimethylimidazo[1,2-a]pyridine-3-carboxamide]", "MEC (minimal effective concentration)": 1.00},
      {"molecule": "CCCC(C)(N)CNC(=O)c1c(C)nc2c(OCc3c(F)ccc(OC)c3F)cc(C)cn12", "note": "(stereo not drawn) [Example 364, ent-N-(2-amino-2-methylpentyl)-8-[(2,6-difluoro-3-methoxybenzyl)oxy]-2,6-dimethylimidazo[1,2-a]pyridine-3-carboxamide]", "MEC (minimal effective concentration)": 0.30},
      {"molecule": "Cc1cc(OCc2c(F)cccc2F)c2nc(C)c(C(=O)NCC(N)c3cccc(C(F)(F)F)c3)n2c1", "note": "(racemic) [Example 376, rac-N-{2-amino-2-[3-(trifluoromethyl)phenyl]ethyl}-8-[(2,6-difluorobenzyl)oxy]-2,6-dimethylimidazo[1,2-a]pyridine-3-carboxamide]", "MEC (minimal effective concentration)": 3.00},
      {"molecule": "Cc1cc(OCc2c(F)cccc2F)c2nc(C)c(C(=O)NCC(C)(N)CCO)n2c1", "note": "(racemic) [Example 270, rac-N-(2-Amino-4-hydroxy-2-methylbutyl)-8-[(2,6-difluorobenzyl)oxy]-2,6-dimethylimidazo[1,2-a]pyridine-3-carboxamide]", "MEC (minimal effective concentration)": 1.00},
      {"molecule": "Cc1nc2c(OCc3c(F)cccc3F)cccn2c1C(=O)NCC(C(C)C)N(C)C", "note": "(single isomer, unassigned; ent-8) [Example 189, ent-8-[(2,6-Difluorobenzyl)oxy]-N-[2-(dimethylamino)-3-methylbutyl]-2-methylimidazo[1,2-a]-pyridine-3-carboxamide]", "MEC (minimal effective concentration)": 3.00},
      {"molecule": "CCCC(C)(N)CNC(=O)c1c(C)nc2c(OCc3c(F)ccc(C4CC4)c3F)cc(C)cn12", "note": "(stereo not drawn) [Example 359, ent-N-(2-amino-2-methylpentyl)-8-[(3-cyclopropyl-2,6-difluorobenzyl)oxy]-2,6-dimethylimidazo[1,2-a]pyridine-3-carboxamide]", "MEC (minimal effective concentration)": 3.00},
      {"molecule": "Cc1nc2c(OCc3c(F)cccc3F)cccn2c1C(=O)NC1CC2CCCC(C1)N2", "note": "(centres unmarked) [Example 27, N-(9-azabicyclo[3.3.1]non-3-yl)-8-[(2,6-difluorobenzyl)oxy]-2-methylimidazo[1,2-a]-pyridine-3-carboxamide]", "MEC (minimal effective concentration)": 1.00},
      {"molecule": "Cc1nc2c(OCc3c(F)cccc3F)cccn2c1C(=O)NCC(C)N1CCOCC1", "note": "(single isomer, unassigned; ent-8) [Example 181, ent-8-[(2,6-Difluorobenzyl)oxy]-2-methyl-N-[2-(morpholin-4-yl)propyl]imidazo[1,2-a]pyridine-3-carboxamide]", "MEC (minimal effective concentration)": 1.00},
      {"molecule": "COCC(C)(N)CNC(=O)c1c(C)nc2c(OCc3c(F)cccc3F)cc(C)cn12", "note": "(racemic) [Example 166, rac-N-(2-amino-3-methoxy-2-methylpropyl)-8-[(2,6-difluorobenzyl)oxy]-2,6-dimethylimidazo[1,2-a]pyridine-3-carboxamide]", "MEC (minimal effective concentration)": 0.30},
      {"molecule": "COCC(C)(N)CNC(=O)c1c(C)nc2c(OCc3c(F)cccc3F)cc(Cl)cn12", "note": "(single isomer, unassigned) [Example 197, ent-N-(2-Amino-3-methoxy-2-methylpropyl)-6-chloro-8-[(2,6-difluorobenzyl)oxy]-2-methylimidazo[1,2-a]pyridine-3-carboxamide]", "MEC (minimal effective concentration)": 1.00},
      {"molecule": "Cc1cc(OCc2c(F)cccc2F)c2nc(C)c(C(=O)NCCN3CC(N4CCCC4)C3)n2c1", "note": "[Example 162, 8-[(2,6-difluorobenzyl)oxy]-2,6-dimethyl-N-{2-[3-(pyrrolidin-1-yl)azetidin-1-yl]ethyl}imidazo[1,2-a]pyridine-3-carboxamide]", "MEC (minimal effective concentration)": 3.00}
    ]}
  ]
}
